Laboratory results as given in patent publication US20100209404A1, “ENHANCED METHOD FOR PRODUCING STEM-LIKE CELLS FROM SOMATIC CELLS” (UNIVERSITY OF DAYTON, priority 2009, published 2010).

Experiments:
skin fibroblast cells = conditions: thapsigargin 1 μg/ml in SR-containing medium; cited from earlier work
[1] = system: fibroblast growth factor receptor 3 (FGFR3); conditions: thapsigargin 1 μg/ml in SR-containing medium; cited from earlier work
[2] = system: Mouse embryonic skin fibroblast (MEF) cells; test: Conversion (reprogramming) of MEF cells into stem-like cells in defined medium; type: cell-based
Description: MEF medium: DMEM (Invitrogen 11965-092) supplemented with 10% FBS (16000-044), 100 U/mL penicillin streptomycin (15140-122). Defined medium (Modified/Supplemented SR medium): 400 ml DMEM/F12 (Invitrogen 11330-032), 5 ml non-Essential Amino Acids (Invitrogen 11140-050), 2.5 ml L-Glutamine (Invitrogen 25030-018), 0.1 mM β-mercaptoethanol (Sigma 7522, add 3.5 μl) and 100 ml Knockout Serum Replacer (Invitrogen 10828-028). 4 ng/mL bFGF (13256-029), 1000/ml unit of ESGRO™ (Lif) (Chemicon Cat #ESG1107). For each experiment, the necessary amount of defined medium was aliquoted, and then freshly prepared bFGF and Lif were added to the medium each time just in advance of use. (Lif was used as a component of such medium for mouse cell culture only.) FGF stock was made by adding 1 ml of DMEM/F12 to a vial of 10 μg of FGF, with the 10 μg of FGF dissolved in the DMEM/F12 and then aliquoted into five vials. Stock vials were then stored at −20° C. For each 30 ml of defined medium, 12 μl of the stock bFGF was added. Arachidonic acid (AA) stock was made by dissolving 10 mg of AA (from porcine liver A3555-10M Sigma) in 1 ml of DMSO. Dissolved AA was then aliquoted into five vials, and then store at −20° C. ([…]). Before use in defined medium, the 10 mg/ml AA was diluted with 1×PBS at a 1:5 ratio. […]

skin fibroblasts = conditions: SR reconstituted while eliminating individual supplements; cited from earlier work
ES-like cells = conditions: bFGF (4 ng/ml) and Lif added together to SR-containing medium; cited from earlier work

C/C=C(/C)C(=O)O[C@H]1C(C)=C2[C@H]([C@@H]1OC(=O)CCCCCCC)[C@@](C)(OC(C)=O)C[C@H](OC(=O)CCC)[C@@]1(O)[C@H]2OC(=O)[C@@]1(C)O [Thapsigargin]
conversion of skin fibroblast cells into stem cell-like cells (skin fibroblast cells): prevented
up-regulated expression of FGFR3 [1]: prevented

CCCCC/C=C\C/C=C\C/C=C\C/C=C\CCCC(=O)O [arachidonic acid, all-cis 5,8,11,14-eicosatetraenoic acid]
conversion efficiency of somatic cells ([2]; arachidonic acid 2 mg/L added to defined medium, in isolation or together with pluronic F68): increase the conversion efficiency
role of SR component in reprogramming somatic cells (e.g., fibroblasts) into stem-like cells (skin fibroblasts): critical components

bFGF: basic fibroblast growth factor
differentiation of the ES-like cells (ES-like cells): preventing differentiation
division of the ES-like cells (ES-like cells): promote division
efficient reprogramming of MEF cells to stem-like cells ([2]; freshly prepared, bFGF 4 ng/mL and Lif 1000/ml unit added to defined medium immediately prior to every conversion or passage): important to ensuring efficient reprogramming

lipid-rich BSA: lipid-rich BSA (AlbuMax I, Invitrogen), component of serum replacement
role of SR component in reprogramming somatic cells (e.g., fibroblasts) into stem-like cells (skin fibroblasts): critical components
